Results as given in patent US7459451B2, “Pyrazolopyridine derivatives” (Astellas Pharma Inc., priority 2004, dated 2008).

Tests used:
[1] = target: U937 Phosphodiesterase IV (PDE IV); assay: Inhibition of U937 Phosphodiesterase IV (PDE IV); type: biochemical; details: inhibitory activity on PDE-IV; enzyme preparation from U937 cells, [3H]cAMP SPA assay, CI-930 10 μM present
Description: (a) Inhibition of U937 Phosphodiesterase IV (PDE IV)
Cultured U937 cells were washed twice and harvested with phosphate-buffered saline (PBS) by cell-scraper. After centrifugation, the cell pellet was suspended in homogenizing buffer (0.5% deoxycholate [DOC], 5 mM 2-mercaptoethanol, 1 μM leupeptin, 100 μM PMSF, 20 μM p-tosyl-L-lysine-chloromethyl ketone [TLCK] in PBS). The cell suspension was then sonicated for a couple of minutes and homogenized by a glass-Teflon homogenizer with twenty strokes. The homogenate was centrifuged at 200 g for 30 minutes, and the supernatant was further ultra-centrifuged at 100,000×g for 90 minutes (4° C.). The final supernatant was dialyzed against dialysis buffer, which was the same component as homogenizing buffer without DOC. The dialysate of enzyme preparation was stored at −20° C. until assay.
PDE4, activity was estimated with a Phosphodiesterase [^3H]cAMP SPA Enzyme Assay System (Amersham Pharmacia Biotech), using a 96 well Opti-plate. Reactions were initiated by addition of 0.025 μCi/well of [^3H]cAMP to the enzyme mixture containing 50 mM Tris-HCl (pH 7.5), 8.3 mM MgCl2, 1.7 mM EGTA, and various concentrations of the test compound or vehicle. CI-930 (10 μM in final), a specific PDE3, inhibitor, was also added in the reaction mixture. After incubation at 30° C. for 15 minutes, 50 μL of SPA beads suspension was added to each well. The well-plate was then shaken for 20 minutes by a plate mixer. Radio-activity in each well was counted by a Top Counter.
Test compounds were dissolved in 100% dimethylsulfoxide (DMSO) and diluted into respective concentrations with the final solution containing 1% v/v of DMSO.
IC50 values of test compounds for the enzyme activity of PDE4 was determined from regression analysis for log-logit conversion values of percent inhibition in the compound-treated tubes compared to that of the control. Percent inhibition was calculated with the following equation: Inhibition (%)={1−(C−B)/(A−B)}×100; in which A, B and C means mean values of radio-activity counts (dpm) of control, blank and the compound-treated tubes, respectively.

[2] = tested on: TNF-alpha production in rat peripheral blood mononuclear cells (PBMC); assay: Inhibition on TNF-alpha production in rat mononuclear cells; type: cell-based; details: inhibitory activity on TNF-alpha production, LPS 1 μg/mL, 24 hours, ELISA
Description: (b) Inhibition on TNF-alpha Production in Rat Mononuclear Cells 1. Test Method (1) Rat Peripheral Blood Mononuclear Cells (PBMC) Preparation
Male Wistar rat at the age of 15 weeks was anesthetized with ether and the blood (about 15 ml) was collected with a disposable syringe from the abdominal artery under celiotomy. Collected blood was transferred to a heparin containing polyethylene tube and an equal volume of RPMI1640 was added to each tube. Diluted blood was then piled tip to 20 ml of Lympholyte-Rat (Cedarlane Laboratories, Canada) in polystyrene centrifuge tube. After centrifugation at 3,000 rpm for 30 minutes, cells gathering in the center area of the gradient were collected by capillary and washed with 40 mL of RPMI1640 by twice of centrifugation at 1,200 rpm for 10 minutes. Precipitate was then suspended in 10 ml of Tris-ammonium-chloride buffer and stood for 10 minutes in order to lyse remaining erythrocytes. After centrifugation at 1,200 rpm for 10 minutes, the precipitate was washed twice with 50 ml of RPMI1640 by centrifugation. PBMC finally precipitated were suspended in RPMI1640 containing 1% fetal bovine serum and antibiotics. After cell counting, final suspension at 3×10^6 cells/mL in culture medium was prepared.
(2) TNF-alpha Production from Stimulated PBMCs
Rat PBMC prepared by the density gradient method using Lympholyte-Rat, were suspended in the culture medium mentioned above with the concentration of 3×10^6 cells/mL and 0.5 ml of the suspension was sowed into each well of a 24-well culture plate. Cells were incubated in the CO2 incubator for 24 hours with 0.25 ml of LPS in addition of 0.25 ml of concentrations of drugs or vehicle at the start of the incubation. Final concentration of LPS in the incubation medium was 1 μg/mL. After 24 hours, the supernatant of each well by centrifugation at 1,700 rpm for 10 minutes was stored at −80° C. until assay. TNF-alpha levels in the medium were measured by ELISA.
The IC50 values of drugs on cytokine productions in LPS stimulated PBMC were estimated by the regression analysis for the relative values of cytokine level in the drug-treated wells compared to those of the vehicle-treated ones.

IC50 [1] [nM] | melting point [°C] | SMILES | IC50 [2] [nM]
< 1000 | 165 to 166 | CCn1ncc2c(-c3cncc(Br)c3)c(C#N)c(C)nc21 [Example 73, 4-(5-bromo-3-pyridyl)-1-ethyl-6-methyl-1H-pyrazolo[3,4-b]pyridine-5-carbonitrile] | 27
< 1000 | 172 to 173 | CCn1ncc2c(-c3cncc(C)c3)c(/C=C/C(=O)O)c(COCC3CCCCC3)nc21 [Example 89, (2E)-3-[6-[(Cyclohexylmethoxy)methyl]-1-ethyl-4-(5-methyl-3-pyridyl)-1H-pyrazolo[3,4-b]pyridin-5-yl]acrylic acid] | 85.6
< 1000 | 189 to 190 | CCn1ncc2c(-c3cncc(Br)c3)c(/C=C/C(=O)O)c(C)nc21 [Example 84, (2E)-3-[4-(5-Bromo-3-pyridyl)-1-ethyl-6-methyl-1H-pyrazolo[3,4-b]pyridin-5-yl]acrylic acid] | 62.7

SMILES | IC50 [1] [nM] | melting point [°C] | IC50 [2] [nM]
CCn1ncc2c(-c3cncc(C)c3)c(/C=C/C(=O)O)c(-c3ccccc3)nc21 [Example 91, (2E)-3-[1-Ethyl-4-(5-methyl-3-pyridyl)-6-phenyl-1H-pyrazolo[3,4-b]pyridin-5-yl]acrylic acid] | < 1000 | – | 15.7
